From US9579408B2, “PET/SPECT agents for applications in biomedical imaging” (Washington University, priority 2011, dated 2017)
Like-named read-outs stand apart in the source and are kept apart here.

Legend:
[1] = rat, i.v. tail-vein, 60 min post-injection
Procedure: This Example illustrates MicroPET imaging of myocardial perfusion in a rat. In these experiments, ^68Ga-radiopharmaceutical 1B was injected intravenously into a rat tail-vein; MicroPET images were obtained 60 min. (FIG. 6) post-injection.

[2] = test system: MDR1 Pgp (ABCB1); details: mdr1a/1b (-/-) (dKO) mice, n = 3
[3] = rats, n = 3
[4] = NanoSPECT/CT imaging in rat; format: in vivo; details: i.v. tail-vein, 30 min and 250 min post-injection
Procedure: (FIG. 4) and 250 min. (FIG. 5) post-injection. The arrows indicate heart uptake.

[5] = Quantitative biodistribution in wild-type (WT) mice; details: n = 3
Procedure: All bioassays were performed as described in earlier publications.

With `CC(C)Oc1cccc2c1[O][68Ga-3]1345[O]c6c(cccc6OC(C)C)C=[N+]1CC(C)(C)C[NH+]3CC[NH+]4CC(C)(C)C[N+]5=C2.[I-]` (stereo not drawn) [Agent 1B, [ENBDMP-3-isopropoxy-PI-^68Ga]^+] the MicroPET image finding [1] was “low level of signal from liver compared to the heart”.

For `CC(C)Oc1cccc2c1[O][67Ga+][O]c1c(cccc1OC(C)C)C=NCC(C)(C)CNCCNCC(C)(C)CN=C2.[I-]` [Agent 1A, [ENBDMP-3-isopropoxy-PI-^67Ga]^+], the “Biodistribution, blood” value ([2]; 5 min P.I.) was 1.54 % ID/g, the “Biodistribution, blood” value ([2]; 15 min P.I.) was 0.64 % ID/g and the “Biodistribution, blood” value ([2]; 60 min P.I.) was 0.34 % ID/g. For the same molecule, the “Biodistribution, blood” value ([2]; 120 min P.I.) was 0.19 % ID/g, the “Biodistribution, brain” value ([2]; 5 min P.I.) was 1.05 % ID/g and the “Biodistribution, brain” value ([2]; 15 min P.I.) was 0.65 % ID/g. For the same molecule, the “Biodistribution, brain” value ([2]; 60 min P.I.) was 0.99 % ID/g, the “Biodistribution, brain” value ([2]; 120 min P.I.) was 0.96 % ID/g and the “Biodistribution, heart” value ([2]; 5 min P.I.) was 17.02 % ID/g. For the same molecule, the “Biodistribution, heart” value ([2]; 15 min P.I.) was 10.59 % ID/g, the “Biodistribution, heart” value ([2]; 60 min P.I.) was 14.61 % ID/g and the “Biodistribution, heart” value ([2]; 120 min P.I.) was 20.29 % ID/g. The “Biodistribution, kidneys” value ([2]; 5 min P.I.) was 86.12 % ID/g, the “Biodistribution, kidneys” value ([2]; 15 min P.I.) was 84.19 % ID/g and the “Biodistribution, kidneys” value ([2]; 60 min P.I.) was 95.60 % ID/g. The “Biodistribution, kidneys” value ([2]; 120 min P.I.) was 115.23 % ID/g, the “Biodistribution, liver” value ([2]; 5 min P.I.) was 46.34 % ID/g and the “Biodistribution, liver” value ([2]; 15 min P.I.) was 46.45 % ID/g. For the same molecule, the “Biodistribution, liver” value ([2]; 60 min P.I.) was 42.54 % ID/g, the “Biodistribution, liver” value ([2]; 120 min P.I.) was 29.82 % ID/g and the “Biodistribution, blood” value ([3]; 5 min P.I.) was 0.175 % ID/g. For the same molecule, the “Biodistribution, blood” value ([3]; 15 min P.I.) was 0.041 % ID/g, the “Biodistribution, blood” value ([3]; 60 min P.I.) was 0.028 % ID/g and the “Biodistribution, blood” value ([3]; 120 min P.I.) was 0.012 % ID/g. The “Biodistribution, brain” value ([3]; 5 min P.I.) was 0.024 % ID/g, the “Biodistribution, brain” value ([3]; 15 min P.I.) was 0.015 % ID/g and the “Biodistribution, brain” value ([3]; 60 min P.I.) was 0.018 % ID/g. For the same molecule, the “Biodistribution, brain” value ([3]; 120 min P.I.) was 0.016 % ID/g, the “Biodistribution, heart” value ([3]; 5 min P.I.) was 1.443 % ID/g and the “Biodistribution, heart” value ([3]; 15 min P.I.) was 1.306 % ID/g. For the same molecule, the “Biodistribution, heart” value ([3]; 60 min P.I.) was 1.386 % ID/g, the “Biodistribution, heart” value ([3]; 120 min P.I.) was 1.516 % ID/g and the “Biodistribution, kidneys” value ([3]; 5 min P.I.) was 8.142 % ID/g. For the same molecule, the “Biodistribution, kidneys” value ([3]; 15 min P.I.) was 5.168 % ID/g, the “Biodistribution, kidneys” value ([3]; 60 min P.I.) was 4.201 % ID/g and the “Biodistribution, kidneys” value ([3]; 120 min P.I.) was 3.543 % ID/g. For the same molecule, the “Biodistribution, liver” value ([3]; 5 min P.I.) was 2.615 % ID/g, the “Biodistribution, liver” value ([3]; 15 min P.I.) was 0.657 % ID/g and the “Biodistribution, liver” value ([3]; 60 min P.I.) was 0.328 % ID/g. The “Biodistribution, liver” value ([3]; 120 min P.I.) was 0.203 % ID/g, the “Biodistribution, lung” value ([3]; 5 min P.I.) was 0.814 % ID/g and the “Biodistribution, lung” value ([3]; 15 min P.I.) was 0.626 % ID/g. For the same molecule, the “Biodistribution, lung” value ([3]; 60 min P.I.) was 0.559 % ID/g, the “Biodistribution, lung” value ([3]; 120 min P.I.) was 0.591 % ID/g and the NanoSPECT/CT image finding [4] was “heart uptake”. For the same molecule, the “Biodistribution, blood” value ([5]; 5 min P.I.) was 1.26 % ID/g, the “Biodistribution, blood” value ([5]; 15 min P.I.) was 0.29 % ID/g and the “Biodistribution, blood” value ([5]; 60 min P.I.) was 0.10 % ID/g. For the same molecule, the “Biodistribution, blood” value ([5]; 120 min P.I.) was 0.07 % ID/g, the “Biodistribution, brain” value ([5]; 5 min P.I.) was 0.14 % ID/g and the “Biodistribution, brain” value ([5]; 15 min P.I.) was 0.12 % ID/g. For the same molecule, the “Biodistribution, brain” value ([5]; 60 min P.I.) was 0.09 % ID/g, the “Biodistribution, brain” value ([5]; 120 min P.I.) was 0.06 % ID/g and the “Biodistribution, heart” value ([5]; 5 min P.I.) was 9.21 % ID/g. The “Biodistribution, heart” value ([5]; 15 min P.I.) was 8.37 % ID/g, the “Biodistribution, heart” value ([5]; 60 min P.I.) was 11.98 % ID/g and the “Biodistribution, heart” value ([5]; 120 min P.I.) was 9.81 % ID/g. The “Biodistribution, kidneys” value ([5]; 5 min P.I.) was 81.04 % ID/g, the “Biodistribution, kidneys” value ([5]; 15 min P.I.) was 83.46 % ID/g and the “Biodistribution, kidneys” value ([5]; 60 min P.I.) was 93.35 % ID/g. The “Biodistribution, kidneys” value ([5]; 120 min P.I.) was 67.91 % ID/g, the “Biodistribution, liver” value ([5]; 5 min P.I.) was 44.95 % ID/g and the “Biodistribution, liver” value ([5]; 15 min P.I.) was 33.80 % ID/g. The “Biodistribution, liver” value ([5]; 60 min P.I.) was 7.44 % ID/g and the “Biodistribution, liver” value ([5]; 120 min P.I.) was 2.90 % ID/g.
